How the values were obtained:
[1] = biological target: T1, Ephrin type-B receptor 3 (Homo sapiens) (UniProt P54753); assay: Inhibition of EPHB3 (unknown origin) assessed as residual activity at 100 nM by KINOMEscan analysis relative to control
T1 sequence (whole entry): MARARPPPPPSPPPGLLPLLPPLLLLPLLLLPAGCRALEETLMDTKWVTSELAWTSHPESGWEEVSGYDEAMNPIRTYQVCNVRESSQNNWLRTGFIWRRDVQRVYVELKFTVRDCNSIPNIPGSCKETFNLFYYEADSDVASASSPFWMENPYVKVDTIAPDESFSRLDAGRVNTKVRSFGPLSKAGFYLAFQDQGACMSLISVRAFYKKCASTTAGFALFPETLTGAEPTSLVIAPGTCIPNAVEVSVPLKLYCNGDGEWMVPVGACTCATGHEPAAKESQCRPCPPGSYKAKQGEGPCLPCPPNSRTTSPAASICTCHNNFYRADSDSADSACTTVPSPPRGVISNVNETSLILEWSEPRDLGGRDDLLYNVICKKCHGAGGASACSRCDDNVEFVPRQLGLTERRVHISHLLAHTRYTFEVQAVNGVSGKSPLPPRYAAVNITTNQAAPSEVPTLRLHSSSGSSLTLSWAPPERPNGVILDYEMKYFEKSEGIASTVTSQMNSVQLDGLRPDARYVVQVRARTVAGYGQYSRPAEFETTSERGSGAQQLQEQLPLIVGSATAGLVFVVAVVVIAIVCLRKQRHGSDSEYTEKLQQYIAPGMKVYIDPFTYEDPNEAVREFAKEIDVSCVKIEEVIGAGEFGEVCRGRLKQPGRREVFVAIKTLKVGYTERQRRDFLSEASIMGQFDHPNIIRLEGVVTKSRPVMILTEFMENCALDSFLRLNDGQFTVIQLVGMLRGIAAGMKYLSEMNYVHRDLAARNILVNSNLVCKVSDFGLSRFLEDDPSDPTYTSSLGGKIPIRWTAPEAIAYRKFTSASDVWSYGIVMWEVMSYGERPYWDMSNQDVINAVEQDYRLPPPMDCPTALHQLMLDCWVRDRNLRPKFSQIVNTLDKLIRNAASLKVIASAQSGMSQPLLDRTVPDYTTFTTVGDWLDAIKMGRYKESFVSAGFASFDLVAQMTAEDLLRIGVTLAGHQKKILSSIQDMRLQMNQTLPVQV

[2] = biological target: Insulin-like growth factor 1 receptor (Homo sapiens) (UniProt P08069); assay: Inhibition of IGF1R (unknown origin) assessed as residual activity at 100 nM by KINOMEscan analysis relative to control
[3] = biological target: T2, Testis-specific serine/threonine-protein kinase 1 (Homo sapiens) (UniProt Q9BXA7); assay: Inhibition of TSSK1B (unknown origin) assessed as residual activity at 100 nM by KINOMEscan analysis relative to control
T2 sequence (whole entry): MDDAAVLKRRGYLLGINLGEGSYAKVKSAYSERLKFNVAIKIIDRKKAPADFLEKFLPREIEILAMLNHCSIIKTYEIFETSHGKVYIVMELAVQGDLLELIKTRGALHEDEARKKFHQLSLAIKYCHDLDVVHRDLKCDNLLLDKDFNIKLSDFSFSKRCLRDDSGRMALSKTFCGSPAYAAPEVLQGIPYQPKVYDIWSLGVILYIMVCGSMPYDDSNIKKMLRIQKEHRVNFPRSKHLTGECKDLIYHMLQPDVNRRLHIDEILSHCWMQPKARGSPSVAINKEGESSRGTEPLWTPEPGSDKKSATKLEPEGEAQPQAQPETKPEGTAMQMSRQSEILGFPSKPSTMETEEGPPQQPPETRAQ

[4] = biological target: Tyrosine-protein kinase Fes/Fps (Homo sapiens) (UniProt P07332); assay: Inhibition of FES (unknown origin) assessed as residual activity at 100 nM by KINOMEscan analysis relative to control
[5] = biological target: Fibroblast growth factor receptor 2 (Homo sapiens) (UniProt P21802); assay: Inhibition of FGFR2 (unknown origin) assessed as residual activity at 100 nM by KINOMEscan analysis relative to control
[6] = biological target: Tyrosine-protein kinase Yes (Homo sapiens) (UniProt P07947); assay: Inhibition of YES (unknown origin) assessed as residual activity at 100 nM by KINOMEscan analysis relative to control
[7] = biological target: T3, Phosphatidylinositol 4,5-bisphosphate 3-kinase catalytic subunit delta isoform (Homo sapiens) (UniProt O00329); assay: Inhibition of PIK3CD (unknown origin) assessed as residual activity at 100 nM by KINOMEscan analysis relative to control
T3 sequence (whole entry): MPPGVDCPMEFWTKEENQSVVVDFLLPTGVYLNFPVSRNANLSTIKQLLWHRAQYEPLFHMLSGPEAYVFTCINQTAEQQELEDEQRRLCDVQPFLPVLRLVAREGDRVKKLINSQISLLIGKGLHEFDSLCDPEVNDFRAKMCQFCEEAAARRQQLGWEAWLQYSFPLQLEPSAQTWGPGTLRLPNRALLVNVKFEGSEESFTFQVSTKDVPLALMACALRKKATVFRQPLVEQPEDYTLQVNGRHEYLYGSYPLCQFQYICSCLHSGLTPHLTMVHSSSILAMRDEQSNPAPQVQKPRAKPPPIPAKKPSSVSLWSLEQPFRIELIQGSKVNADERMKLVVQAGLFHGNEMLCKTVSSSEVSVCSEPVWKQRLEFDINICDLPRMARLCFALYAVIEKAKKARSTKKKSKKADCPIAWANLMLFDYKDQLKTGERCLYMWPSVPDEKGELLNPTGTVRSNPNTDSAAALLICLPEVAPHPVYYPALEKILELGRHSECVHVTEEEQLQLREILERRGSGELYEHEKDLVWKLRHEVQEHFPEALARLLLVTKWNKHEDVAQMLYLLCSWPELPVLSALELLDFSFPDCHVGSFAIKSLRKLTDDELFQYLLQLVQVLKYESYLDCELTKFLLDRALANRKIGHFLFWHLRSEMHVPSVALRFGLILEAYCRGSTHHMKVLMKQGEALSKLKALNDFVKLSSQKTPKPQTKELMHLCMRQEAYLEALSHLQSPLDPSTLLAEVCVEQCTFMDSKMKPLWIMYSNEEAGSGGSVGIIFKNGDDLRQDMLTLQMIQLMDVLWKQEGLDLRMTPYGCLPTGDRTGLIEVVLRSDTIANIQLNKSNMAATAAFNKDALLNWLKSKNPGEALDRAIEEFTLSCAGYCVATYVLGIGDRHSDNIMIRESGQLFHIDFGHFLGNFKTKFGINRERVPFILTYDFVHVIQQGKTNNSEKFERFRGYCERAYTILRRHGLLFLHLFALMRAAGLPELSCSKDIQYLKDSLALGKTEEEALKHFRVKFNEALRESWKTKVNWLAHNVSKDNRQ

[8] = biological target: Serine/threonine-protein kinase pim-3 (Homo sapiens) (UniProt Q86V86); assay: Inhibition of PIM3 (unknown origin) assessed as residual activity at 100 nM by KINOMEscan analysis relative to control
[9] = biological target: Serine/threonine-protein kinase PAK 2 (Homo sapiens) (UniProt Q13177); assay: Inhibition of PAK2 (unknown origin) assessed as residual activity at 100 nM by KINOMEscan analysis relative to control
Serine/threonine-protein kinase PAK 2 (Homo sapiens), sequence (Q13177 whole entry): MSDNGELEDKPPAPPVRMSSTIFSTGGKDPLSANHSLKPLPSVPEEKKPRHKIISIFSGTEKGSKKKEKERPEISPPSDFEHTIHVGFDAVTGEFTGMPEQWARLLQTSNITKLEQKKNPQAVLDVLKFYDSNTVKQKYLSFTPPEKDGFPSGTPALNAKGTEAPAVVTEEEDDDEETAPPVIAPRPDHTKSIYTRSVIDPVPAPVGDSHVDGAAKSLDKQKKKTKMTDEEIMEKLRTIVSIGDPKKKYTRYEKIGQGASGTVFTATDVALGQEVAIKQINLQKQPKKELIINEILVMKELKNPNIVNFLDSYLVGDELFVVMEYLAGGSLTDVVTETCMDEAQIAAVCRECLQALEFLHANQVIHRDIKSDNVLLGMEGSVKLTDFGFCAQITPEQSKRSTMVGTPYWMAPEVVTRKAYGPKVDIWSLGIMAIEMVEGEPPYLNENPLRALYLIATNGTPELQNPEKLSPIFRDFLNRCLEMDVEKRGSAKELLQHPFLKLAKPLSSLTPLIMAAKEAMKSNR

Tyrosine-protein kinase Yes (Homo sapiens), sequence (P07947 2-543 limits assumed): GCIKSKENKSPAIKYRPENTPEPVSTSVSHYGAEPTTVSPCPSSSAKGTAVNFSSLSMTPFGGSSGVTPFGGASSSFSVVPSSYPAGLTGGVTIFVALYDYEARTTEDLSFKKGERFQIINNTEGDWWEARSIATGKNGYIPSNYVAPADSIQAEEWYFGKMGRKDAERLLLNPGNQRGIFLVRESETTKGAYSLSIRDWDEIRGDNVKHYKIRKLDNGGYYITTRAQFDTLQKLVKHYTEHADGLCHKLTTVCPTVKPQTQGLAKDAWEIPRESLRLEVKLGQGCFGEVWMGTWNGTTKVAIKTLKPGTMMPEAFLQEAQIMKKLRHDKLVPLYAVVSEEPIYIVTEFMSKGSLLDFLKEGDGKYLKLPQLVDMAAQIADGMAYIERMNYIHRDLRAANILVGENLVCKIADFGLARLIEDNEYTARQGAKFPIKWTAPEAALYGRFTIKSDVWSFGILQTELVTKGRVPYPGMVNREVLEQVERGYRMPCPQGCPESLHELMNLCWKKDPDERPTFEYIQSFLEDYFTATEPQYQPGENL
Fibroblast growth factor receptor 2 (Homo sapiens), sequence (P21802 22-821 limits assumed): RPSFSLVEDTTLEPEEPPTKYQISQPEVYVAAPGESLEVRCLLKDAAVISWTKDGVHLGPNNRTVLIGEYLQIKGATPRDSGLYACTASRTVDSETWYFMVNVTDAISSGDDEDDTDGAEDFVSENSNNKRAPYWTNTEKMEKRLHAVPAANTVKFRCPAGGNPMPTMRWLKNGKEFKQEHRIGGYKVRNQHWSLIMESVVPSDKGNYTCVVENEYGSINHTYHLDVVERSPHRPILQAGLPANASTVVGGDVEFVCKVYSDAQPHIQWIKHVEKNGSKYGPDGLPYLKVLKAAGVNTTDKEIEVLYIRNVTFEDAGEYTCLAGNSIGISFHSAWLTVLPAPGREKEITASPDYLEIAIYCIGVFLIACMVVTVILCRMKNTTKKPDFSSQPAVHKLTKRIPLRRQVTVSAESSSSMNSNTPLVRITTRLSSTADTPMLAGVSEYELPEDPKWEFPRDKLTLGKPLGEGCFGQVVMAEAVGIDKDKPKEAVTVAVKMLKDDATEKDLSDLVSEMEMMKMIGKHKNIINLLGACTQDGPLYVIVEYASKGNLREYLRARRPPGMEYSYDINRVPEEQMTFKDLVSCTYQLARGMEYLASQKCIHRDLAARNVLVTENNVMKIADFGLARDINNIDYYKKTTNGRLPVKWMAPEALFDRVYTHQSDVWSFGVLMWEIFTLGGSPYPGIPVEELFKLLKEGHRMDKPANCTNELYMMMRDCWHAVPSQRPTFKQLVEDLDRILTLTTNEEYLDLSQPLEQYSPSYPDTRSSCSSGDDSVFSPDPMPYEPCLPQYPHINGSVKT
Tyrosine-protein kinase Fes/Fps (Homo sapiens), sequence (P07332 whole entry): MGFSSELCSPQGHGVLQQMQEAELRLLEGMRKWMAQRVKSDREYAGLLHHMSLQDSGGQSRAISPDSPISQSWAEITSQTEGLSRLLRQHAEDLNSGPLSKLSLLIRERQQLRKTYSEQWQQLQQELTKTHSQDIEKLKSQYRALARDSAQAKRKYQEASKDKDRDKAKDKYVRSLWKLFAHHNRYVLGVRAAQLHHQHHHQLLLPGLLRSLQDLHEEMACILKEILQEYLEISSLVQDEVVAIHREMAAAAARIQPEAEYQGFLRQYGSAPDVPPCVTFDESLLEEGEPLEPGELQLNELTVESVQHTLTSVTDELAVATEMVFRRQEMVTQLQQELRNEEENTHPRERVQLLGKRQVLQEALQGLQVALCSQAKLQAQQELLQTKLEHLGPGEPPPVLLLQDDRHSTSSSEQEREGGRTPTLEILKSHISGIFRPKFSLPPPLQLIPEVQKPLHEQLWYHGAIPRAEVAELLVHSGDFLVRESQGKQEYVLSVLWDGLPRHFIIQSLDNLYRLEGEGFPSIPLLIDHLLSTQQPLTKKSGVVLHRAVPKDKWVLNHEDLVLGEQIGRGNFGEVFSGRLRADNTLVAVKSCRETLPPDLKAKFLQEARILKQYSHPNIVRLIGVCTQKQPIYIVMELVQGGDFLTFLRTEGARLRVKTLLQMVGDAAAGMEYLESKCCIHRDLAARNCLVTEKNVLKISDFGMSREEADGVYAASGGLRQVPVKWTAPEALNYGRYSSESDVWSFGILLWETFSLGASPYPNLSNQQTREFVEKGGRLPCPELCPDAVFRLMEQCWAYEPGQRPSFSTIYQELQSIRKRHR
Insulin-like growth factor 1 receptor (Homo sapiens), sequence (P08069 31-736 limits assumed): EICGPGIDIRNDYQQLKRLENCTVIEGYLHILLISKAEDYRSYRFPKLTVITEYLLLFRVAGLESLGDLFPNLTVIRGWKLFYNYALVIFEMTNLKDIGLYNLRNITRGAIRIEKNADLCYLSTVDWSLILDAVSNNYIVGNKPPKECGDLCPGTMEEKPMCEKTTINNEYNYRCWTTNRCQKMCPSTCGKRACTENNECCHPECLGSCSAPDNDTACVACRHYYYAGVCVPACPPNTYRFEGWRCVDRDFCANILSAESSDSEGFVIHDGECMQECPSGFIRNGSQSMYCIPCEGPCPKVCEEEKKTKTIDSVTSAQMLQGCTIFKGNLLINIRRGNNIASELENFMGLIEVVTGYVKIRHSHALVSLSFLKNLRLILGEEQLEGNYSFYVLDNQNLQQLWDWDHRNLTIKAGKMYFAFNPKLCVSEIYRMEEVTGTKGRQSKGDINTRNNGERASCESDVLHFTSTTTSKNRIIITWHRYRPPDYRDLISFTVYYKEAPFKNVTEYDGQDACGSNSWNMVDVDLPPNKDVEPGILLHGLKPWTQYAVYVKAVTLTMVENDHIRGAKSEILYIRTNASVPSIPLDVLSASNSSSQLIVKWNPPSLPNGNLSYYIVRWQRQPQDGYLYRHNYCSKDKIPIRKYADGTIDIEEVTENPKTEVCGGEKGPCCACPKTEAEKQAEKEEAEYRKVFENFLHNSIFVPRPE
Insulin-like growth factor 1 receptor (Homo sapiens), sequence (P08069 741-1367 limits assumed): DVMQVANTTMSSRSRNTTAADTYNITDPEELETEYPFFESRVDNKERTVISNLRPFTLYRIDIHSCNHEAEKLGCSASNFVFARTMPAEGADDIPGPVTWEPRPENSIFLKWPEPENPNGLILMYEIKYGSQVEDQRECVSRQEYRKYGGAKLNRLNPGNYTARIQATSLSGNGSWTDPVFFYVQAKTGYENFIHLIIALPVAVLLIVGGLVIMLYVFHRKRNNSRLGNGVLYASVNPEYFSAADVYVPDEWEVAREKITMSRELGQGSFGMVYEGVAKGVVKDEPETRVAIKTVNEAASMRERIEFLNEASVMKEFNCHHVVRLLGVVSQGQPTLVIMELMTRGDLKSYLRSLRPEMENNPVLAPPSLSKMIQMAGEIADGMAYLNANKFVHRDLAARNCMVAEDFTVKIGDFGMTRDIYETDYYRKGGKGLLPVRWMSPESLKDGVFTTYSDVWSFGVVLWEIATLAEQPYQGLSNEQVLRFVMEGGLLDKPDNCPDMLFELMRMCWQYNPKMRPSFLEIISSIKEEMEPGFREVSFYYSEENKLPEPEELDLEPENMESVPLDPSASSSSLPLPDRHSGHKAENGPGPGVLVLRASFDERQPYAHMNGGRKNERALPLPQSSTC

COc1cc2ncnc(N[C@H](C)c3cccc4ccccc34)c2cc1OC
Activity [1]: 71%
Activity [2]: 82%
Activity [3]: 84%
Activity [4]: 78%
Activity [5]: 80%
Activity [6]: 100%
Activity [7]: 87%
Activity [8]: 87%
Activity [9]: 100%

— ChEMBL document CHEMBL5678818, “Discovery of potent SOS1 inhibitors that block RAS activation via disruption of the RAS-SOS1 interaction” (Proc Natl Acad Sci U S A, 2019)
